In ChEMBL document CHEMBL1909046, “DrugMatrix in vitro pharmacology data”:

Assays:
[1] = molecular target: Protein kinase C alpha type (Homo sapiens, UniProt P17252); format: cell-based; details: sf9;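 also: inhibition of PKCalpha kinase activity measured in an enzyme assay with histone as the phosphorylation substrate; in other assays of this panel Not Active means under 50% inhibition at 10 µM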
[2] = DRUGMATRIX: Nicotinic Acetylcholine radioligand binding (ligand: [125I] Epibatidine); format: cell membranes, Membrane; details: imr-32; Not Active = under 50% inhibition at 10 µM
[3] = molecular target: Beta-2 adrenergic receptor (Homo sapiens, UniProt P07550); assay: DRUGMATRIX: Adrenergic beta2 radioligand binding (ligand: [3H] CGP-12177); format: cell membranes, Membrane; details: cho; Not Active = under 50% inhibition at 10 µM
Chain of Beta-2 adrenergic receptor (P07550 whole entry): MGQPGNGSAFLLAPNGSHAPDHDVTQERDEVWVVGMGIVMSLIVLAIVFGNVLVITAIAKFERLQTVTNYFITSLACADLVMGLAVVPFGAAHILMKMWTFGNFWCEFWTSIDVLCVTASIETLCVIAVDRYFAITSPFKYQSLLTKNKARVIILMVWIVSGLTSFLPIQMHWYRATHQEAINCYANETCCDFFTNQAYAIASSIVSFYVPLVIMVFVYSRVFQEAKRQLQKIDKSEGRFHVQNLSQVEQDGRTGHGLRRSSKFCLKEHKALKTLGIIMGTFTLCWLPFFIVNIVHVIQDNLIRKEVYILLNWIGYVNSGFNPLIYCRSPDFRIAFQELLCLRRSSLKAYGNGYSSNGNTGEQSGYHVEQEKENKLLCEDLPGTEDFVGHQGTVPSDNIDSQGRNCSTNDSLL

[4] = DRUGMATRIX: Interleukin IL-1 radioligand binding (ligand: [125I] interleukin 1beta); format: cell membranes, Membrane; details: nih3t3; Not Active = under 50% inhibition at 10 µM
[5] = molecular target: Glycine receptor (Rattus norvegicus, UniProt P22771+P24524+P07727+P20781); format: cell membranes, Wistar, Spinal cord, Membrane; also: in other assays of this panel Not Active means under 50% inhibition at 10 µM
[6] = molecular target: T1, Cathepsin G (Homo sapiens, UniProt P08311); format: tissue-based; details: neutrophil;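 also: inhibition of Cathepsin G enzyme activity, tested on an AMC-conjugated peptide substrate; in other assays of this panel Not Active means under 50% inhibition at 10 µM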
T1 sequence (P08311 whole entry): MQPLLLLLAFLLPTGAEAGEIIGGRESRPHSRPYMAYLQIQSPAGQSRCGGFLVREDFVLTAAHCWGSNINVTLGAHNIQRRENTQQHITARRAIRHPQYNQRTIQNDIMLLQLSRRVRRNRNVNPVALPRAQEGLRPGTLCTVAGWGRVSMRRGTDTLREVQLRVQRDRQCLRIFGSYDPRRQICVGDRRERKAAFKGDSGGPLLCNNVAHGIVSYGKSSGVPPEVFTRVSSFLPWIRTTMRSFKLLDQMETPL

[7] = molecular target: 5-hydroxytryptamine receptor 4 (Cavia porcellus, UniProt O70528); format: cell membranes, Dunkin-Hartley, Striatum, Membrane; also: in other assays of this panel Not Active means under 50% inhibition at 10 µM
Chain of 5-hydroxytryptamine receptor 4 (O70528 whole entry): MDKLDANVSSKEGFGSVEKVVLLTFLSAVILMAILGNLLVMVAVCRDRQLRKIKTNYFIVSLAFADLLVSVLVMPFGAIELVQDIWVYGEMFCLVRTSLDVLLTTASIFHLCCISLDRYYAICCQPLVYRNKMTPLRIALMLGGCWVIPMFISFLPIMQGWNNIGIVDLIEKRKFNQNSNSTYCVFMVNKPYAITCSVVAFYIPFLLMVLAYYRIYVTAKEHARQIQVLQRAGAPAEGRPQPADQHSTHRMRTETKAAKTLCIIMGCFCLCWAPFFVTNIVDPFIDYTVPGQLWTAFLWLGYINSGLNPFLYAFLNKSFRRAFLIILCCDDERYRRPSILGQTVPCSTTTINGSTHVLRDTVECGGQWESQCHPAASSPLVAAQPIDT

[8] = molecular target: T2, Neutrophil elastase (Homo sapiens, UniProt P08246); format: tissue-based
T2 sequence (P08246 whole entry): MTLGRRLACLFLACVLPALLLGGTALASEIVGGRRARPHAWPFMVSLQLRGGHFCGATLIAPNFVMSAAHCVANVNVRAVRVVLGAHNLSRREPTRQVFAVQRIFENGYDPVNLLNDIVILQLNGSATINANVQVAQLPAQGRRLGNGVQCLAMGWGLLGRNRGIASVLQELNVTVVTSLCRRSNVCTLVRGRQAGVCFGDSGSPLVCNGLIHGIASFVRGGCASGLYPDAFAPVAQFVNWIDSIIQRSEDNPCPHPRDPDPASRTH

N=C(N)NCCN1CCCCCCC1 [GUANETHIDINE]
Not Active: IC50 [1] | IC50 [2] | Ki [2] | IC50 [3] | IC50 [4] | Ki [4] | IC50 [5] | IC50 [6] | IC50 [7] | IC50 [8]

CC1(C)O[C@@H]2C[C@H]3[C@@H]4CCC5=CC(=O)CC[C@]5(C)[C@@]4(F)[C@@H](O)C[C@]3(C)[C@]2(C(=O)CCl)O1 [HALCINONIDE]
Not Active: IC50 [1] | IC50 [2] | Ki [2] | IC50 [3] | IC50 [4] | Ki [4] | IC50 [5] | IC50 [6] | IC50 [7] | IC50 [8]

O=c1[nH]c(=O)n([C@H]2C[C@H](O)[C@@H](CO)O2)cc1I [IDOXURIDINE]
Not Active: IC50 [1] | IC50 [2] | Ki [2] | IC50 [3] | IC50 [4] | Ki [4] | IC50 [5] | IC50 [6] | IC50 [7] | IC50 [8]

CC1Cc2ccccc2N1NC(=O)c1ccc(Cl)c(S(N)(=O)=O)c1 (stereo not given) [INDAPAMIDE]
Not Active: IC50 [1] | IC50 [2] | Ki [2] | IC50 [3] | IC50 [4] | Ki [4] | IC50 [5] | IC50 [6] | IC50 [7] | IC50 [8]

Nc1nc(N)nc(-c2cc(Cl)ccc2Cl)n1.O=C(O)/C=C\C(=O)O [IRSOGLADINE MALEATE]
Not Active: IC50 [1] | IC50 [2] | Ki [2] | IC50 [3] | IC50 [4] | Ki [4] | IC50 [5] | IC50 [6] | IC50 [7] | IC50 [8]

CCC(C)n1ncn(-c2ccc(N3CCN(c4ccc(OCC5COC(Cn6cncn6)(c6ccc(Cl)cc6Cl)O5)cc4)CC3)cc2)c1=O (stereo not given) [ITRACONAZOLE]
Not Active: IC50 [1] | IC50 [2] | Ki [2] | IC50 [3] | IC50 [4] | Ki [4] | IC50 [5] | IC50 [6] | IC50 [7] | IC50 [8]

CCCCN1CCCC[C@H]1C(=O)Nc1c(C)cccc1C [LEVOBUPIVACAINE]
Not Active: IC50 [1] | IC50 [2] | Ki [2] | IC50 [3] | IC50 [4] | Ki [4] | IC50 [5] | IC50 [6] | IC50 [7] | IC50 [8]

CCCCc1nc(Cl)c(CO)n1Cc1ccc(-c2ccccc2-c2nnn[nH]2)cc1 [LOSARTAN]
Not Active: IC50 [1] | IC50 [2] | Ki [2] | IC50 [3] | IC50 [4] | Ki [4] | IC50 [5] | IC50 [6] | IC50 [7] | IC50 [8]

Sc1ncnc2nc[nH]c12 [MERCAPTOPURINE ANHYDROUS]
Not Active: IC50 [1] | IC50 [2] | Ki [2] | IC50 [3] | IC50 [4] | Ki [4] | IC50 [5] | IC50 [6] | IC50 [7] | IC50 [8]

C[C@](N)(Cc1ccc(O)c(O)c1)C(=O)O [METHYLDOPA]
Not Active: IC50 [1] | IC50 [2] | Ki [2] | IC50 [3] | IC50 [4] | Ki [4] | IC50 [5] | IC50 [6] | IC50 [7] | IC50 [8]

C[C@]12CCC(=O)C=C1CC[C@@H]1[C@@H]2CC[C@@]2(C)[C@H]1CC[C@]2(C)O [METHYLTESTOSTERONE]
Not Active: IC50 [1] | IC50 [2] | Ki [2] | IC50 [3] | IC50 [4] | Ki [4] | IC50 [5] | IC50 [6] | IC50 [7] | IC50 [8]

Cc1ccccc1N1C(=O)c2cc(S(N)(=O)=O)c(Cl)cc2NC1C (stereo not given) [METOLAZONE]
Not Active: IC50 [1] | IC50 [2] | Ki [2] | IC50 [3] | IC50 [4] | Ki [4] | IC50 [5] | IC50 [6] | IC50 [7] | IC50 [8]

CCn1cc(C(=O)O)c(=O)c2cc(F)c(N3CCNCC3)cc21 [NORFLOXACIN]
Not Active: IC50 [1] | IC50 [2] | Ki [2] | IC50 [3] | IC50 [4] | Ki [4] | IC50 [5] | IC50 [6] | IC50 [7] | IC50 [8]

NC1=NC(=O)C(c2ccccc2)O1 (stereo not given) [PEMOLINE]
Not Active: IC50 [1] | IC50 [2] | Ki [2] | IC50 [3] | IC50 [4] | Ki [4] | IC50 [5] | IC50 [6] | IC50 [7] | IC50 [8]

Nc1nc2c(ncn2CCC(CO)CO)c(=O)[nH]1 [PENCICLOVIR]
Not Active: IC50 [1] | IC50 [2] | Ki [2] | IC50 [3] | IC50 [4] | Ki [4] | IC50 [5] | IC50 [6] | IC50 [7] | IC50 [8]

C=C(C)C1(O)OC(=O)C=C1OC (stereo not given) [PENICILLIC ACID]
Not Active: IC50 [1] | IC50 [2] | Ki [2] | IC50 [3] | IC50 [4] | Ki [4] | IC50 [5] | IC50 [6] | IC50 [7] | IC50 [8]

CC1(C)S[C@@H]2[C@H](NC(=O)Cc3ccccc3)C(=O)N2[C@H]1C(=O)O [PENICILLIN G]
Not Active: IC50 [1] | IC50 [2] | Ki [2] | IC50 [3] | IC50 [4] | Ki [4] | IC50 [5] | IC50 [6] | IC50 [7] | IC50 [8]

CCCN1C[C@H](CSC)C[C@@H]2c3cccc4[nH]cc(c34)C[C@H]21 [PERGOLIDE]
Not Active: IC50 [1] | IC50 [2] | Ki [2] | IC50 [3] | IC50 [4] | Ki [4] | IC50 [5] | IC50 [6] | IC50 [7] | IC50 [8]
